Results: ChEMBL document CHEMBL5500384, “New synergistic benzoquinone scaffolds as inhibitors of mycobacterial cytochrome bc1 complex to treat multi-drug resistant tuberculosis” (Eur J Med Chem, 2024)

Legend:
[1] = test system: Mycobacterium tuberculosis; assay: Antitubercular activity against Mycobacterium tuberculosis H37Rv incubated for 5 days by microtiter plate method; format: functional; conditions: 120 h, time 5 day
[2] = Renal toxicity in Albino mouse assessed as change in renal corpuscles at 50 to 2000 mg/kg, po measured after 14 days; format: organism-based; conditions: in vivo, 336 h, dose 50-2000 mg/kg, time 14 day
[3] = Renal toxicity in Albino mouse assessed as change in distal convoluted tubules at 50 to 2000 mg/kg, po measured after 14 days; format: organism-based; conditions: in vivo, 336 h, dose 50-2000 mg/kg, time 14 day
[4] = Acute toxicity in Albino mouse assessed as change in neutrophils at 50 to 2000 mg/kg, po measured after 14 days (reference value: 75%); format: organism-based; conditions: in vivo, 336 h, dose 50-2000 mg/kg, time 14 day
[5] = Acute toxicity in Albino mouse assessed as change in eosinophils at 50 to 2000 mg/kg, po measured after 14 days (reference value: 3%); format: organism-based; conditions: in vivo, 336 h, dose 50-2000 mg/kg, time 14 day
[6] = Hepatotoxicity in Albino mouse assessed as change in bile duct at 50 to 2000 mg/kg, po measured after 14 days; format: toxicity, organism-based, Liver; conditions: in vivo, 336 h, dose 50-2000 mg/kg, time 14 day
[7] = Acute toxicity in Albino mouse assessed as change in lymphocytes at 50 to 2000 mg/kg, po measured after 14 days (reference value: 21%); format: organism-based; conditions: in vivo, 336 h, dose 50-2000 mg/kg, time 14 day
[8] = Acute toxicity in Albino mouse assessed as change in serum creatine level at 50 to 2000 mg/kg, po measured after 14 days (reference value: 0.9 mg/dl); format: organism-based; conditions: in vivo, 336 h, dose 50-2000 mg/kg, time 14 day
[9] = Hepatotoxicity in Albino mouse assessed as change in central vein at 50 to 2000 mg/kg, po measured after 14 days; format: toxicity, organism-based; conditions: in vivo, 336 h, dose 50-2000 mg/kg, time 14 day
[10] = Pulmonary toxicity in Albino mouse assessed as change in alveolar sacs at 50 to 2000 mg/kg, po measured after 14 days; format: organism-based; conditions: in vivo, 336 h, dose 50-2000 mg/kg, time 14 day
[11] = Renal toxicity in Albino mouse assessed as change in Bowman's capsule at 50 to 2000 mg/kg, po measured after 14 days; format: organism-based; conditions: in vivo, 336 h, dose 50-2000 mg/kg, time 14 day
[12] = Acute toxicity in Albino mouse assessed as change in ALP level at 50 to 2000 mg/kg, po measured after 14 days (reference value: 28 IU/L); format: organism-based; conditions: in vivo, 336 h, dose 50-2000 mg/kg, time 14 day
[13] = Cytotoxicity against african green monkey Vero cells assessed as cell viability at 100 ug/ml by MTT assay; format: toxicity, cell-based; conditions: chlorocebus sabaeus, at 100 µg/mL, read-out: Activity
[14] = Renal toxicity in Albino mouse assessed as change in renal tubules at 50 to 2000 mg/kg, po measured after 14 days; format: organism-based; conditions: in vivo, 336 h, dose 50-2000 mg/kg, time 14 day
[15] = Cytotoxicity against african green monkey Vero cells by MTT assay; format: toxicity, cell-based; conditions: chlorocebus sabaeus
[16] = Cytotoxicity against african green monkey Vero cells assessed as cell viability at 25 ug/ml by MTT assay; format: toxicity, cell-based; conditions: chlorocebus sabaeus, at 25 µg/mL, read-out: Activity
[17] = Acute toxicity in Albino mouse assessed as change in SGOT count at 50 to 2000 mg/kg, po measured after 14 days (reference value: 42 IU/L); format: organism-based; conditions: in vivo, 336 h, dose 50-2000 mg/kg, time 14 day
[18] = Cytotoxicity against african green monkey Vero cells assessed as cell viability at 50 ug/ml by MTT assay; format: toxicity, cell-based; conditions: chlorocebus sabaeus, at 50 µg/mL, read-out: Activity
[19] = Pulmonary toxicity in Albino mouse assessed as appearance of cilia at 50 to 2000 mg/kg, po measured after 14 days; format: organism-based; conditions: in vivo, 336 h, dose 50-2000 mg/kg, time 14 day
[20] = Acute toxicity in Albino mouse assessed as change in monocytes at 50 to 2000 mg/kg, po measured after 14 days (reference value: 1%); format: organism-based; conditions: in vivo, 336 h, dose 50-2000 mg/kg, time 14 day
[21] = Pulmonary toxicity in Albino mouse assessed as change in alveoli structure at 50 to 2000 mg/kg, po measured after 14 days; format: organism-based; conditions: in vivo, 336 h, dose 50-2000 mg/kg, time 14 day
[22] = Acute toxicity in po dosed Albino mouse assessed as mortality after 14 days; format: organism-based; conditions: in vivo, time 14 day
[23] = Acute toxicity in Albino mouse assessed as change in platelet count at 50 to 2000 mg/kg, po measured after 14 days (reference value: 3.24 mm3); format: organism-based; set-up: unit not given here; conditions: in vivo, 336 h, dose 50-2000 mg/kg, time 14 day
[24] = Hepatotoxicity in Albino mouse assessed as change in portal tracks at 50 to 2000 mg/kg, po measured after 14 days; format: toxicity, organism-based; conditions: in vivo, 336 h, dose 50-2000 mg/kg, time 14 day
[25] = Acute toxicity in Albino mouse assessed as change in serum urea level at 50 to 2000 mg/kg, po measured after 14 days (reference value: 46 mg/dl); format: organism-based; conditions: in vivo, 336 h, dose 50-2000 mg/kg, time 14 day
[26] = Hepatotoxicity in Albino mouse assessed as change in portal vein at 50 to 2000 mg/kg, po measured after 14 days; format: toxicity, organism-based; conditions: in vivo, 336 h, dose 50-2000 mg/kg, time 14 day
[27] = Acute toxicity in Albino mouse assessed as change in total leucocyte count at 50 to 2000 mg/kg, po measured after 14 days (reference value: 7400 mm3); format: organism-based; conditions: in vivo, 336 h, dose 50-2000 mg/kg, time 14 day
[28] = Cytotoxicity against african green monkey Vero cells assessed as cell viability at 6.25 ug/ml by MTT assay; format: toxicity, cell-based; conditions: chlorocebus sabaeus, at 6.25 µg/mL, read-out: Activity
[29] = Renal toxicity in Albino mouse assessed as change in proximal convoluted tubules at 50 to 2000 mg/kg, po measured after 14 days; format: organism-based; conditions: in vivo, 336 h, dose 50-2000 mg/kg, time 14 day
[30] = Renal toxicity in Albino mouse assessed as extravasation of RBC at 50 to 2000 mg/kg, po measured after 14 days; format: organism-based, Erythrocyte; conditions: in vivo, 336 h, dose 50-2000 mg/kg, time 14 day
[31] = Acute toxicity in Albino mouse assessed as change in ESR at 50 to 2000 mg/kg, po measured after 14 days (reference value: 10 millimeter); format: organism-based; conditions: in vivo, 336 h, dose 50-2000 mg/kg, time 14 day
[32] = Renal toxicity in Albino mouse assessed as change in tubular capillaries at 50 to 2000 mg/kg, po measured after 14 days; format: organism-based; conditions: in vivo, 336 h, dose 50-2000 mg/kg, time 14 day
[33] = Acute toxicity in Albino mouse assessed as mortality at 2000 mg/kg, po after 2 to 4 hrs; format: organism-based; conditions: in vivo, time 2-4 hrs
[34] = Cytotoxicity against african green monkey Vero cells assessed as cell viability at 3.125 ug/ml by MTT assay; format: toxicity, cell-based; conditions: chlorocebus sabaeus, at 3.125 µg/mL, read-out: Activity
[35] = Pulmonary toxicity in Albino mouse assessed as change in squamous pneumocytes at 50 to 2000 mg/kg, po measured after 14 days; format: organism-based; conditions: in vivo, 336 h, dose 50-2000 mg/kg, time 14 day
[36] = Acute toxicity in Albino mouse assessed as change in hemoglobin level at 50 to 2000 mg/kg, po measured after 14 days (reference value: 12.8 g/dl); format: organism-based; conditions: in vivo, 336 h, dose 50-2000 mg/kg, time 14 day
[37] = Acute toxicity in Albino mouse assessed as change in LDH level at 50 to 2000 mg/kg, po measured after 14 days (reference value: 1052 IU/L); format: organism-based; conditions: in vivo, 336 h, dose 50-2000 mg/kg, time 14 day
[38] = Renal toxicity in Albino mouse assessed as structural absorbability abnormalities at 50 to 2000 mg/kg, po measured after 14 days; format: organism-based; conditions: in vivo, 336 h, dose 50-2000 mg/kg, time 14 day
[39] = Pulmonary toxicity in Albino mouse assessed as change in bronchi structure at 50 to 2000 mg/kg, po measured after 14 days; format: organism-based; conditions: in vivo, 336 h, dose 50-2000 mg/kg, time 14 day
[40] = Acute toxicity in Albino mouse assessed as mortality at 50 mg/kg, po after 14 days; format: organism-based; conditions: in vivo, 336 h, time 14 day
[41] = Hepatotoxicity in Albino mouse assessed as change in hepatic artery at 50 to 2000 mg/kg, po measured after 14 days; format: toxicity, organism-based, Liver; conditions: in vivo, 336 h, dose 50-2000 mg/kg, time 14 day
[42] = Acute toxicity in Albino mouse assessed as mortality at 300 mg/kg, po after 5 to 8 hrs; format: organism-based; conditions: in vivo, time 5-8 hrs
[43] = Cytotoxicity against african green monkey Vero cells assessed as cell viability at 12.5 ug/ml by MTT assay; format: toxicity, cell-based; conditions: chlorocebus sabaeus, at 12.5 µg/mL, read-out: Activity
[44] = Pulmonary toxicity in Albino mouse assessed as appearance of goblet cells at 50 to 2000 mg/kg, po measured after 14 days; format: organism-based; conditions: in vivo, 336 h, dose 50-2000 mg/kg, time 14 day
[45] = Acute toxicity in Albino mouse assessed as change in RBC count measured per million cells at 50 to 2000 mg/kg, po measured after 14 days (reference value: 9.15 microL); format: organism-based, Erythrocyte; conditions: in vivo, 336 h, dose 50-2000 mg/kg, time 14 day
[46] = Acute toxicity in Albino mouse assessed as change in SGPT count at 50 to 2000 mg/kg, po measured after 14 days (reference value: 52 IU/L); format: organism-based; conditions: in vivo, 336 h, dose 50-2000 mg/kg, time 14 day

## CO[C@H]1/C=C/O[C@@]2(C)Oc3c(C)c(O)c4c(O)c(c(/C=N/N5CCN(C)CC5)c(O)c4c3C2=O)NC(=O)/C(C)=C\C=C\[C@H](C)[C@H](O)[C@@H](C)[C@@H](O)[C@@H](C)[C@H](OC(C)=O)[C@@H]1C [RIFAMPIN]
[1]
  MIC: 0.3 µM

## O=C1C(Cl)=C(/N=C/c2ccccc2)C(=O)c2ccccc21
[1]
  MIC: 12.5 µg/mL

## O=C1C(Cl)=C(/N=C/c2ccc([N+](=O)[O-])cc2)C(=O)c2ccccc21
[1]
  MIC: 12.5 µg/mL

## O=C1C(Cl)=C(N2C(=O)C(Cl)C2c2ccc([N+](=O)[O-])cc2)C(=O)c2ccccc21 (stereo unspecified)
[1]
  MIC: 30 µM
[2]
  Activity: Non-Toxic
[3]
  Activity: Non-Toxic
[4]
  Activity: 72%
[5]
  Activity: 4%
[6]
  Activity: Non-Toxic
[7]
  Activity: 39%
[8]
  Activity: 0.33 mg/dL
[9]
  Activity: Non-Toxic
[10]
  Activity: Non-Toxic
[11]
  Activity: Non-Toxic
[12]
  Activity: 429.54 IU/L
[13]
  viability at 100 ug/ml: 9.6%
[14]
  Activity: Non-Toxic
[15]
  Activity: Dose-Dependent Effect
[16]
  viability at 25 ug/ml: 46.2%
[17]
  Activity: 168.42 IU/L
[18]
  viability at 50 ug/ml: 21.4%
[19]
  Activity: Non-Toxic
[20]
  Activity: 1%
[21]
  Activity: Non-Toxic
[22]
  LD50 at 336 h: 50 mg/kg
[23]
  Activity: 5.95
[24]
  Activity: Non-Toxic
[25]
  Activity: 37.75 mg/dL
[26]
  Activity: Non-Toxic
[27]
  Activity: 8800 mm3
[28]
  viability at 6.25 ug/ml: 100%
[29]
  Activity: Non-Toxic
[30]
  Activity: Non-Toxic
[31]
  Activity: 15 millimeter/hr
[32]
  Activity: Non-Toxic
[33]
  Activity: Toxic
[34]
  viability at 3.125 ug/ml: 100%
[35]
  Activity: Non-Toxic
[36]
  Activity: 13.2 g/dL
[37]
  Activity: 505 IU/L
[38]
  Activity: Non-Toxic
[39]
  Activity: Non-Toxic
[40]
  Activity: Non-Toxic
[41]
  Activity: Non-Toxic
[42]
  Activity: Toxic
[43]
  viability at 12.5 ug/ml: 78%
[44]
  Activity: Non-Toxic
[45]
  Activity: 9.85
[46]
  Activity: 43.21 IU/L

## O=C1C(Cl)=C(/N=C/c2ccccc2O)C(=O)c2ccccc21
[1]
  MIC: 12.5 µg/mL

## O=C1C(Cl)=C(N2C(=O)C(Cl)C2c2ccccc2)C(=O)c2ccccc21 (stereo unspecified)
[1]
  MIC: 6.25 µg/mL
